Tests used:
[1] = molar heat capacity at constant pressure; conditions: 101.33 kPa, Liquid, Cooling curve
[2] = molar heat capacity at constant pressure; xn = mol fraction of the nth substance listed; conditions: 101 kPa, Liquid

CC(=O)O [acetic acid]
[1]
Conditions | molar heat capacity at constant pressure [J/K/mol]
313.15 K | 135.5
333.15 K | 137.21

CC(=O)O [acetic acid] + CC(=O)OC(C)=O
[2], Cooling curve, x2 = 0
Conditions | molar heat capacity at constant pressure [J/K/mol]
308.15 K | 134.93
313.15 K | 135.5
318.15 K | 136
323.15 K | 136.35
328.15 K | 136.87
333.15 K | 137.21

CC(=O)OC(C)=O [ethanoic anhydride]
[1]
Conditions | molar heat capacity at constant pressure [J/K/mol]
313.15 K | 200.73
333.15 K | 204.34

CC(=O)OC(C)=O [ethanoic anhydride] + CC(=O)O
molar heat capacity at constant pressure [J/K/mol], [2], Cooling curve
Conditions | x1 = 0.0613 | x1 = 0.1282 | x1 = 0.2013 | x1 = 0.2817 | x1 = 0.3704 | x1 = 0.4687 | x1 = 0.5785 | x1 = 0.7017 | x1 = 0.8411 | x1 = 1
308.15 K | 139.18 | 144.25 | 149.4 | 154.9 | 160.85 | 167.3 | 174.47 | 182.33 | 190.56 | 199.93
313.15 K | 139.82 | 144.91 | 150.09 | 155.59 | 161.58 | 168.08 | 175.28 | 183.12 | 191.49 | 200.73
318.15 K | 140.51 | 145.46 | 150.76 | 156.27 | 162.26 | 168.76 | 176.03 | 183.96 | 192.33 | 201.58
323.15 K | 141.12 | 145.9 | 151.31 | 156.85 | 162.89 | 169.45 | 176.76 | 184.78 | 193.23 | 202.53
328.15 K | 141.75 | 146.52 | 152.03 | 157.59 | 163.68 | 170.33 | 177.68 | 185.79 | 194.35 | 203.67
333.15 K | 142.23 | 147.13 | 152.51 | 158.1 | 164.24 | 170.89 | 178.31 | 186.44 | 195 | 204.34

C1N2CN3CN1CN(C2)C3 [1,3,5,7-tetraazaadamantane] + CC(=O)O
molar heat capacity at constant pressure [J/K/mol], [2], Vacuum adiabatic calorimetry
Conditions | x1 = 0.022 | x1 = 0.0454 | x1 = 0.0703 | x1 = 0.0967 | x1 = 0.1249 | x1 = 0.1551 | x1 = 0.1873 | x1 = 0.2221
308.15 K | 137.35 | 144.8 | 151.94 | 159.76 | 170.64 | 180.97 | 191.09 | 203.69
313.15 K | 142.53 | 150.32 | 157.16 | 165.58 | 176.29 | 187.61 | 198.06 | 210.89
318.15 K | 147.51 | 155.25 | 162.14 | 170.38 | 181.92 | 193.63 | 203.66 | 216.63
323.15 K | 152.45 | 160.18 | 166.78 | 175.7 | 186.63 | 198.28 | 209.59 | 222.76
328.15 K | 157.24 | 165.08 | 172 | 180.88 | 191.96 | 204.18 | 214.96 | –
333.15 K | 161.64 | 169.05 | 176.96 | 185.28 | 197.37 | 209.36 | 220.93 | 235.17

CCCCCCC [heptane]
[1]
Conditions | molar heat capacity at constant pressure [J/K/mol]
313.15 K | 230.37
333.15 K | 240.03

— the NIST ThermoML archive (doi:10.1021/je9006579)
